Converted amounts (≈) assume the structure as drawn.

Details in the first data set: not given
Regarding `Nc1ccc(O)c2c1C(=O)c1ccccc1C2=O`, the solubility (usually how much of the substance goes into solution per volume) turned out to be 0.15 mM (≈ 35.9 µg/mL).
`CCOP(=S)(OCC)OCCSCC` displayed a solubility of 0.232 mM (≈ 60 µg/mL).
On the same count and under the same terms, the value for `O=C(Nc1ccccc1)Nc1ccccc1` was 0.707 mM (≈ 150 µg/mL).
In the case of `c1ccc2c3c(ccc2c1)-c1cccc2cccc-3c12`, the solubility came to 9.91e-06 mM (≈ 0.0025 µg/mL).
In the case of `CC(=O)Oc1c(C(C)(C)C)cc([N+](=O)[O-])c(C)c1[N+](=O)[O-]`, the solubility came out at 0.0338 mM (≈ 10 µg/mL).
Take `CC1CCC(C)O1` (stereo not drawn): the solubility came out at 1180 mM (≈ 118000 µg/mL).

The data set is the same for the next values; noted with them: 20 °C.
Regarding `Clc1ccc(-c2ccc(Cl)c(Cl)c2)c(Cl)c1`, the solubility came out at 0.000126 mM (≈ 0.0368 µg/mL).
For the compound `Nc1cnn(-c2ccccc2)c(=O)c1Br`, the solubility stood at 0.752 mM (≈ 200 µg/mL).
The compound `Clc1ccc(-c2ccccc2Cl)cc1Cl` gave a solubility of 0.000516 mM (≈ 0.133 µg/mL).
As for `NCCS(=O)(=O)O`, the solubility was 645 mM (≈ 80700 µg/mL).
`CC(C)OC(=O)C(C)N(C(=O)c1ccccc1)c1ccc(F)c(Cl)c1` (stereo not drawn) displayed a solubility of 0.0373 mM (≈ 13.6 µg/mL).
Same read-out and setting: the value for `OCCOc1ccccc1` was 193 mM (≈ 26700 µg/mL); that for `C[C@@H](CCl)[N+](=O)[O-]` was 64.8 mM (≈ 8000 µg/mL).
In turn, `COc1ccc(C(=O)c2cccc(C)c2)cc1C` yielded a solubility of 0.00832 mM (≈ 2 µg/mL).
The same measure, in the same setting: the value for `CCCCI` was 1.1 mM (≈ 202 µg/mL).
In turn, `CC(=O)CCC1C(=O)N(c2ccccc2)N(c2ccccc2)C1=O` returned a solubility of 0.54 mM (≈ 174 µg/mL).
Still for that read-out and setting: the value for `O=[N+]([O-])c1c(O)ccc2ccccc12` was 1.06 mM (≈ 200 µg/mL); that for `c1ncc2nc[nH]c2n1` was 4160 mM (≈ 500000 µg/mL); that for `NC[C@H](O)c1ccccc1` was 334 mM (≈ 45800 µg/mL).
The compound `Cc1cccc(N)c1` yielded a solubility of 140 mM (≈ 15000 µg/mL).
As for `O=c1c(O)c(-c2ccc(O)cc2O)oc2cc(O)cc(O)c12`, the solubility turned out to be 0.827 mM (≈ 250 µg/mL).
The compound `Clc1cccc(-c2c(Cl)cccc2Cl)c1` gave a solubility of 0.00015 mM (≈ 0.0386 µg/mL).
On the same count and under the same terms, the value for `OCCCBr` was 1020 mM (≈ 142000 µg/mL).
In turn, `CCNc1nc(NC(C)CC)nc(OC)n1` (stereo not drawn) registered a solubility of 2.71 mM (≈ 610 µg/mL).
Turning to `Oc1cccc2cccnc12`, the solubility is 3.83 mM (≈ 556 µg/mL).
Regarding `c1cnc2ncncc2n1`, the solubility was determined as 1080 mM (≈ 143000 µg/mL).
Still for that read-out and setting: the result for `CCOC(=O)CC` reads 188 mM (≈ 19200 µg/mL).
Regarding `CCSc1nc(NC(C)C)nc(NC(C)C)n1`, the solubility turned out to be 0.0626 mM (≈ 16 µg/mL).
Same read-out and setting: the value for `Clc1ccc(-c2ccc(Cl)c(Cl)c2)cc1` was 0.000279 mM (≈ 0.0719 µg/mL); that for `C[C@@H]1CN[C@@H](C)CN1` was 3060 mM (≈ 350000 µg/mL).
Take `CON(C)C(=O)Nc1ccc(Br)c(Cl)c1`: the solubility came to 0.119 mM (≈ 35 µg/mL).
On the same count and under the same terms, the result for `Cc1occc1C(=O)Nc1ccccc1` reads 0.497 mM (≈ 100 µg/mL); that for `CCCCOCCOC(C)=O`, 56.2 mM (≈ 9000 µg/mL).
Take `Nc1ccc2cc3ccc(N)cc3nc2c1`: the solubility came out at 2390 mM (≈ 500000 µg/mL).
Turning to `COP(=S)(OC)Oc1ccc([N+](=O)[O-])c(Cl)c1`, the solubility is 0.134 mM (≈ 40 µg/mL).
Regarding `C[C@@]12C(=O)OC(=O)[C@]1(C)C1CCC2O1`, the solubility amounted to 0.153 mM (≈ 30 µg/mL).
The same measure, in the same setting: the value for `C=CCOC(=O)c1ccccc1C(=O)OCC=C` was 0.739 mM (≈ 182 µg/mL).
For `O=C(O)CCCCCCCCCCC(=O)O`, the solubility worked out at 0.174 mM (≈ 40 µg/mL).
Compound `O=C(O)CCc1ccccc1` had a solubility of 39.3 mM (≈ 5900 µg/mL).
On to `CCOP(=S)(OCC)Oc1cc(C)nc(N(CC)CC)n1`, for which the solubility turned out to be 0.0119 mM (≈ 3.97 µg/mL).
On the same count and under the same terms, the result for `OCCCCl` reads 2640 mM (≈ 250000 µg/mL).
`COC(=O)c1ccc(OC)cc1` came in with a solubility of 3.87 mM (≈ 643 µg/mL).

Staying with this data set, now noted: 22 °C.
Take `CCSC(=O)N(CC(C)C)CC(C)C`: the solubility amounted to 0.207 mM (≈ 45 µg/mL).
Still for that read-out and setting: the result for `O=[N+]([O-])c1ccc(Oc2ccc(Cl)cc2Cl)cc1` reads 0.00352 mM (≈ 1 µg/mL); that for `Cc1cc(=O)[nH]c(=O)[nH]1`, 55.5 mM (≈ 7000 µg/mL); that for `CC(Oc1ccccc1Cl)C(=O)O` (stereo not drawn), 5.98 mM (≈ 1200 µg/mL).

The data set is the same for the next values; noted with them: 23 °C.
The compound `C=C(C)C1CC=C(C)C(=O)C1` (stereo not drawn) had a solubility of 8.67 mM (≈ 1300 µg/mL).
`CCCC(C)(C)C(=O)Nc1ccc(Cl)cc1` registered a solubility of 0.0951 mM (≈ 22.8 µg/mL).

The same data set, now with this note: 24 °C.
In turn, `CC(C)CC(=O)CC(C)C` yielded a solubility of 18.6 mM (≈ 2640 µg/mL).
`O=C(O)c1c2ccccc2cc2ccccc12`: the solubility was 0.382 mM (≈ 85 µg/mL).
In turn, `CC=CCCCC` displayed a solubility of 0.153 mM (≈ 15 µg/mL).
Regarding `Cc1c2ccccc2cc2c1ccc1ccccc12`, the solubility was 4.54e-05 mM (≈ 0.011 µg/mL).
With `CN1CCCC(CN2c3ccccc3Sc3ccccc32)C1` (stereo not drawn), the solubility was found to be 0.018 mM (≈ 5.59 µg/mL).

The data set is the same for the next values; noted with them: 25 °C.
On to `CCCCCCc1ccccc1`, for which the solubility was determined as 0.00556 mM (≈ 0.902 µg/mL).
Compound `C=C[C@H]1CN2CCC1C[C@@H]2[C@@H](O)c1ccnc2ccccc12` (stereo partly drawn) came in with a solubility of 0.744 mM (≈ 219 µg/mL).
The same measure, in the same setting: the value for `CCCOP(=O)(OCCC)Oc1ccc(SC)cc1` was 0.411 mM (≈ 125 µg/mL).
With `CCC(O)CC`, the solubility was found to be 584 mM (≈ 51500 µg/mL).
Still for that read-out and setting: the value for `O=[N+]([O-])c1cc(C2CCCCC2)c(O)c([N+](=O)[O-])c1` was 0.0563 mM (≈ 15 µg/mL).
Turning to `Clc1cccc(-c2cc(Cl)ccc2Cl)c1`, the solubility was 0.000982 mM (≈ 0.253 µg/mL).
The same measure, in the same setting: the value for `COc1ccc2c(c1OC)C(=O)O[C@@H]2[C@H]1c2c(cc3c(c2OC)OCO3)CCN1C` was 0.449 mM (≈ 186 µg/mL).
`C=C(C)c1ccccc1` registered a solubility of 0.982 mM (≈ 116 µg/mL).
The compound `C=C(C)C` gave a solubility of 4.69 mM (≈ 263 µg/mL).
For the compound `C1CCCC1`, the solubility was 2.22 mM (≈ 156 µg/mL).
`C#CC(C)(C)NC(=O)c1cc(Cl)cc(Cl)c1` displayed a solubility of 0.0586 mM (≈ 15 µg/mL).
The compound `CCC[C@@H](O)CC` yielded a solubility of 158 mM (≈ 16100 µg/mL).
Turning to `CC(C)(C)c1ccccc1`, the solubility was 0.22 mM (≈ 29.5 µg/mL).
On the same count and under the same terms, the value for `Cc1ccccc1N1C(=O)c2cc(S(N)(=O)=O)c(Cl)cc2NC1C` (stereo not drawn) was 0.165 mM (≈ 60.3 µg/mL); that for `O=C(O)C(c1ccccc1)c1ccccc1` was 0.598 mM (≈ 127 µg/mL).

The values are drawn from the OPERA property sets (Mansouri et al. 2018).
